# pIC50: −log10 of the molar value. Read-outs that look alike come from different tables or passages of the source.
# Assays:
# PC-3 = experiment: Monolayer cell culture IC50 (CellTiter-Glo viability), PC-3; type: cell-based; details: Prostate, PC-3, monolayer, 72 hours treatment, average of three replications
# Experimental: (§1) Cancer cell lines listed in Table 1 were subjected for testing anti-cancer potency or the half maximal inhibitory concentration (IC50) of the D-Actinomycin (DACT) molecular complexes.
# (§2) The SK-ES-1, U-2 OS, and SAOS-2 cells were cultured in a growth medium that is ATCC-formulated McCoy's 5a Medium Modified, Catalog No. 30-2007. The PC-3, PANC-1, SK-Mel-5, A549, H460, and H1299 were cultured in a growth medium that is ATCC-formulated Dulbecco's Modified Eagle's Medium (DMEM), Catalog No. 30-2002. The cells were seeded on 96-well microtiter plates with 3500 cells per well and cultured in an incubator (Model 3120, Thermo Scientific, USA) with a constant temperature at 37° C. and 5% carbon dioxide (CO2) gas for 24 hours.
# (§3) The new DACT-molecular complexes were made into a series with concentration of 200 nM to 40 nM, 8 nM, 1.6 nM, 0.32 nM, and 0.064 nM. 100 μl of each solution was then added into each well to bring out the final concentration of the drug treatment at 100 nM, 20 nM, 4 nM, 0.8 nM, 0.16 nM, or 0.032 nM, respectively.
# (§4) The treated cells in the 96 well plate was then further cultured at the same conditions for 72 hours and then subjected for a final cell viability measurement. The measurement used a homogeneous method to determine the number of metabolically active cells presented in each of treatments. A testing reagent for the measurement is a mixture solution of the CellTiter-Glo® 2.0 reagent (CTG, Promega Cat #G9243, USA) and growth medium in 1:1 ratio in this respect.
# (§5) The 96-well plate with the new molecular complex treated cells was taken out from incubator after the 72 hours of incubation, and the treatment solution in each well was removed using a multichannel pipette, and 100 μl of the testing reagent were added into each well. The plate was then placed on a plate shaker for 15 min. The plate was covered with a piece of aluminum foil to protect the CTG luminescence during the shaking time.
# (§6) Then 90 μl of the 100 μl testing reagent were transferred into an opaque-walled 96-well plate for the CTG luminescence reading on a plate reader (SynergyH4 Hybrid Reader, Biotek, USA). The luminescence intensity of each treatment was positively correlated with the number of cells survived during the treatments.
# (§7) All the treatment data was normalized by comparing with the control samples that had only growth medium without any molecular complexes. The half maximal inhibitory concentration (IC50) data was calculated using the nonlinear regression model and dose-responses (inhibition) curve built in the software. Each of treatments was performed in three replications each time and repeated three times for validation. The IC50 average […] (Avg) and standard deviation (STDV) were calculated based on the three replications.
# PANC-1 = experiment: Monolayer cell culture IC50 (CellTiter-Glo viability), PANC-1; type: cell-based; details: Pancreatic, PANC-1, monolayer, 72 hours treatment, average of three replications
# Experimental: as §1, §2, §3, §4, §5, §6, §7
# H1299 = experiment: Monolayer cell culture IC50 (CellTiter-Glo viability), H1299; type: cell-based; details: Lung, 72 hours treatment, average of three replications
# Experimental: as §1, §2, §3, §4, §5, §6, §7
# [1] = Accelerated stability studies (PXRD physical form stability); type: physicochemical; details: accelerated conditions 75% humidity and 40° C., one year, by PXRD
# Experimental: Stability studies of the DACT novel forms were conducted using accelerated conditions (75% humidity and 40° C.) of which are obvious to the artisan in the field, for more than one year. […] Selected data of the novel complexes of DACT:methylparaben, propylparaben and diphenic acid proves this point.
# A549 = experiment: Monolayer cell culture IC50 (CellTiter-Glo viability), A549; type: cell-based; details: Lung, 72 hours treatment, average of three replications
# Experimental: as §1, §2, §3, §4, §5, §6, §7
# H460 = experiment: Monolayer cell culture IC50 (CellTiter-Glo viability), H460; type: cell-based; details: Lung, 72 hours treatment, average of three replications
# Experimental: as §1, §2, §3, §4, §5, §6, §7
# SK-Mel-5 = experiment: Monolayer cell culture IC50 (CellTiter-Glo viability), SK-Mel-5; type: cell-based; details: Skin, SK-Mel-5, monolayer, 72 hours treatment, average of three replications
# Experimental: as §1, §2, §3, §4, §5, §6, §7
# SK-ES-1 = experiment: Monolayer cell culture IC50 (CellTiter-Glo viability), SK-ES-1; type: cell-based, human; details: Sarcoma, SK-ES-1, monolayer, 72 hours treatment, average of three replications
# Experimental: as §1, §2, §3, §4, §5, §6, §7
# [2] = Test I, read-out: IC50 Test (I) Avg
# [3] = Test II, read-out: IC50 Test (II) Avg
# [4] = Test III, read-out: IC50 Test (III) Avg
compound,measurement,setting,value
CCCOC(=O)c1ccc(O)cc1.Cc1c2oc3c(C)ccc(C(=O)NC4C(=O)NC(C(C)C)C(=O)N5CCCC5C(=O)N(C)CC(=O)N(C)C(C(C)C)C(=O)OC4C)c3nc-2c(C(=O)NC2C(=O)NC(C(C)C)C(=O)N3CCCC3C(=O)N(C)CC(=O)N(C)C(C(C)C)C(=O)OC2C)c(N)c1=O (stereo not shown) [DACT-propylparaben],pIC50,PC-3; [2],8.11
same,pIC50,PC-3; [3],8.34
same,pIC50,PC-3; [4],8.20
same,pIC50,PANC-1; [2],8.34
same,pIC50,PANC-1; [3],8.77
same,pIC50,PANC-1; [4],8.48
same,pIC50,H1299; [2],8.83
same,pIC50,H1299; [3],9.02
same,pIC50,H1299; [4],8.98
same,physical form stability,[1],stable
same,pIC50,A549; [2],8.86
same,pIC50,A549; [3],8.76
same,pIC50,A549; [4],8.79
same,pIC50,H460; [2],9.68
same,pIC50,H460; [3],9.52
same,pIC50,H460; [4],9.82
same,pIC50,SK-Mel-5; [2],9.41
same,pIC50,SK-Mel-5; [3],9.57
same,pIC50,SK-Mel-5; [4],8.59
same,pIC50,SK-ES-1; [2],9.12
same,pIC50,SK-ES-1; [3],9.47
same,pIC50,SK-ES-1; [4],9.31
